Entries after “also recorded” stand apart in the source; their conditions may differ. Read-outs that look alike come from different tables or passages of the source. Marks after values point to notes of the source that are not given here.
Legend:
SUR-1−/− mice [1] = experiment: Fasting blood glucose during continuous subcutaneous exendin-(9-39) infusion in SUR-1−/− mice; format: in vivo, mouse; conditions: 150 pmol/kg/min s.c. pump, day 3, mean±SEM, vehicle 63.2±4.9
From the text: (§1) SUR-1^−/− mice were kindly provided by Dr. Mark A. Magnuson. The generation and genotyping of SUR-1^−/− mice were previously described (8). Mice are maintained in a C57Bl/6 genetic background. Twelve to eighteen week SUR-1^−/− and wild-type littermatte control mice were used in all experiments. Mice were maintained on a 12:12-h light-dark cycle and were fed a standard rodent chow diet. All procedures were approved and carried out according to the University of Pennsylvania Institutional Animal Care and Use Committee guidelines. […]
(§2) For determination of fasting blood glucose levels mice were fasted for 12-16 hours. […] Blood glucose levels were measured using a hand-held glucose meter (FreeStyle; TheraSense, Alameda, Calif.). Insulin and glucagon were measured by ELISA (Mouse Endocrine Immunoassay Panel; Linco Research, Inc., St. Charles, Mo.).
(§3) Twelve-18 week old male SUR-1^−/− and wildtype littermates underwent a baseline evaluation including fasting blood glucose measurements and oral glucose tolerance testing, followed by randomization to treatment with exendin-(9-39) (150 pmol/kg/min) or vehicle (0.9% NaCl, 1% BSA). Fasting blood glucose levels were determined after an overnight fast on days 3 and 7 of the infusion. In addition, oral glucose tolerance and insulin sensitivity were evaluated during treatment. […]

[2] = system: SUR-1−/− and wild-type mice; experiment: Insulin tolerance test (insulin sensitivity); format: in vivo, mouse; conditions: any of the treatment groups; 0.5 units/kg insulin i.p.
Description: (§4) Alzet mini-osmotic pumps (model 2002; Alza, Palo Alto, Calif.) were implanted subcutaneously to deliver exendin-(9-39) (Bachem Bioscience, King of Prussia, Pa.) at a rate of 150 pmol/kg/min or vehicle (0.9% NaCl/1% BSA) for 2 weeks. For determination of fasting blood glucose levels mice were fasted for 12-16 hours. Oral glucose tolerance testing was carried after a 12-16 hour fast by administering 2 g/kg of dextrose by oral gavage (feeding needles; Popper and Sons, Inc., Hyde Park, N.Y.). For insulin tolerance testing mice received 0.5 units/kg of insulin intraperitoneally after a 4 hour fast. Blood glucose levels were measured using a hand-held glucose meter (FreeStyle; TheraSense, Alameda, Calif.). Insulin and glucagon were measured by ELISA (Mouse Endocrine Immunoassay Panel; Linco Research, Inc., St. Charles, Mo.). To determine the mechanism of action for the effect of exendin-(9-39) on fasting blood glucose levels insulin sensitivity was assessed by an insulin tolerance test.

[3] = system: wild-type littermate control mice; experiment: Fasting blood glucose during continuous subcutaneous exendin-(9-39) infusion in wild-type littermates; format: in vivo, mouse; conditions: 150 pmol/kg/min s.c. pump
From the text: as §1, §2, §3

SUR-1−/− islets [4] = experiment: Perifusion of isolated islets with amino acid ramp, insulin release; format: cell-based, mouse
Description: Islets were isolated by collagenase digestion and cultured for 3 days in RPMI 1640 medium containing 10 mM glucose. The culture medium was supplemented with 10% fetal bovine serum, 2 mM glutamine, 100 units/mL penicillin, and 50 μg/mL streptomycin. Islets were incubated at 37° C. in a 5% CO2, 95% air-humidified incubator. Batches of 100 cultured mouse islets were loaded onto a nylon filter in a chamber and perifused with Krebs-Ringer bicarbonate buffer (115 mM NaCl, 24 mM NaHCO3, 5 mM KCl, 1 mM MgCl2, 2.5 mM CaCl2), 10 mM HEPES, pH 7.4) with 0.25% bovine serum albumin at a flow rate of 2 mL/min. Perifusate solutions were gassed with 95% 02, 5% CO2 and maintained at 37° C. Islets were stimulated with a ramp of amino acids. […] Insulin was measured by radioimmunoassay (Linco Research Inc., St. Charles, Mo.).
Given the observed in vivo effects on insulin secretion but not insulin sensitivity, it was next determined whether exendin-(9-39) exerts a direct effect on SUR-1^−/− islet function. […]

SUR-1−/− islets [5] = experiment: Cytosolic free Ca2+ measurement (Fura-2) in islets; format: cell-based, mouse
Description: Mouse islets were isolated and cultured on poly-[…] coated glass coverslips under the same conditions as described above. The perifusion procedure and cytosolic-free Ca2+([Ca2+]i) measurement were described previously (24). In brief, the coverslip with attached islets was incubated with 15 μM Fura-2 acetoxymethylester (Molecular Probes, Eugene, Oreg.) in Krebs-Ringer bicarbonate buffer with 5 mM glucose for 35 min at 37° C. Islets were then perifused with Krebs-Ringer bicarbonate buffer with 0.25% bovine serum albumin at 37° C. at a flow rate of 2 mL/min, while various agents were applied. [Ca2+]i was measured with a dual wavelength fluorescence microscope as previously described. The effect of exendin-(9-39) on the characteristically elevated intracellular calcium concentration of SUR-1^-/- islets was studied. […] As previously reported, amino acids caused a transient further rise in intracellular calcium.

SUR-1−/− mice [6] = experiment: Fasting hormonal profile (insulin, glucagon, insulin/glucose ratio) during treatment; format: in vivo, mouse
Description: as §4, with “Mo.).” for “Mo.). To determine the mechanism of action for the effect of exendin-(9-39) on fasting blood glucose levels insulin sensitivity was assessed by an insulin tolerance test.”

[7] = system: subject with congenital hyperinsulinism due to a mutation in ABCC8; experiment: Intravenous exendin-(9-39) infusion in fasting subjects with congenital hyperinsulinism; format: in vivo, human
Description: After an overnight fast, subject received an intravenous infusion of 0.9% NaCl for 60 min followed by a 6 hour intravenous infusion of exendin-(9-39) at ascending doses every 120 min (100 pmol/kg/min for 120 min, then 300 pmol/kg/min for 120 min and then 500 pmol/kg/min for 120 min). On the second day, 0.9% NaCl was infused intravenously after an overnight fast for a total of 7 hours.
Blood samples for glucose, insulin, C-peptide, glucagon and GLP-1 were obtained at different intervals during the infusions.

wild-type littermates = experiment: Oral glucose tolerance test in wild-type littermates; format: in vivo, mouse; conditions: wild-type littermates during treatment
Description: as §4, with “Mo.).” for “Mo.). To determine the mechanism of action for the effect of exendin-(9-39) on fasting blood glucose levels insulin sensitivity was assessed by an insulin tolerance test.”

SUR-1−/− islets [8] = experiment: Insulin secretion in static incubations of isolated islets; format: cell-based, mouse
SUR-1−/− islets [9] = experiment: cAMP content in static incubations of isolated islets; format: cell-based, mouse
Description: Islets were isolated as above, hand-picked and cultured for three days. Cultured islets were preincubated in glucose free Krebs-Ringer bicarbonate buffer for 60 min, 100 nM exendin-(9-39) was added 30 min into the preincubation period. Then, islets were exposed to different treatments for an additional 30 min in the presence of 0.1 mM isobutyl-methylzanthine (IBMX). After incubation, islets were washed 2 times by cold glucose-free Hank's buffer. cAMP was measured in islet lysates by ELISA (GE/Amersham Biosciences, Piscataway, N.J.). The effect of exendin-(9-39) on cAMP was determined in static incubations of isolated islets.

SUR-1−/− mice [10] = experiment: Oral glucose tolerance test in SUR-1−/− mice; format: in vivo, mouse
Description: as §4, with “Mo.).” for “Mo.). To determine the mechanism of action for the effect of exendin-(9-39) on fasting blood glucose levels insulin sensitivity was assessed by an insulin tolerance test.”

[11] = among the treatment groups, during treatment
[12] = fasting HI subject, i.v. ascending doses

## exendin-(9-39)
SUR-1−/− mice [1]
  Fasting blood glucose levels: 82.2 ± 6.3 mg/dL
[2]
  Peripheral insulin sensitivity (insulin tolerance test): did not impact; also recorded: did not influence
[3]
  Fasting blood glucose levels vs vehicle-treated wild type controls: not different
SUR-1−/− islets [4]; 100 nM exendin-(9-39), amino acid mixture 0-12 mM
  Insulin release in response to amino acid ramp stimulation: blocked
SUR-1−/− islets [4]; presence vs absence of exendin-(9-39)
  Insulin response to KCl: similar
SUR-1−/− islets [5]
  Basal intracellular calcium: did not impact
SUR-1−/− islets [5]; amino acids 4 mM
  Amino acid-stimulated rise in intracellular calcium: no effect
SUR-1−/− islets [5]; listed as Exendin-(9-39)
  Basal intracellular calcium: did not affect
SUR-1−/− mice [6]; SUR-1−/− mice, exendin-(9-39) treatment vs WT
  Insulin/glucose ratio: normalized
SUR-1−/− mice [6]; [11]
  Fasting glucagon levels: not different
  Fasting insulin levels: not different
[7]; another 2 human subjects
  Fasting blood glucose levels: elevation
[7]; fasting HI subject, i.v. 100, 300, 500 pmol/kg/min each 120 min, saline infusion dropped below 60
  Blood glucose levels during infusion: above 80 mg/dL
[7]; [12]
  Fasting hypoglycemia: prevented
  Plasma insulin: suppressed
wild-type littermates
  Glucose tolerance (oral, 2 g/kg): no effect
SUR-1−/− islets [8]; 100 nM exendin-(9-39) with 4 mM AAM, AAM alone 389±17
  Insulin Secretion: 219±14 ng/100 islets/30 min
SUR-1−/− islets [8]; 100 nM exendin-(9-39) with 4 mM AAM, AAM alone 389±17, listed as Exendin-(9-39)
  Insulin Secretion: 219 ± 14 ng/100 islets/30 min
SUR-1−/− islets [8]; baseline, 100 nM exendin-(9-39), baseline without 221±22
  Insulin Secretion: 126±12 ng/100 islets/30 min
SUR-1−/− islets [8]; baseline, 100 nM exendin-(9-39), baseline without 221±22, listed as Exendin-(9-39)
  Insulin Secretion: 126 ± 12 ^a ng/100 islets/30 min
SUR-1−/− islets [9]; 100 nM exendin-(9-39) with 4 mM amino acid mixture (AAM)
  cAMP Content: 20.9±4.4 pmol/100 islets
SUR-1−/− islets [9]; 100 nM exendin-(9-39) with 4 mM amino acid mixture (AAM), listed as Exendin-(9-39)
  cAMP Content: 52.5 ± 9.4 ^c pmol/100 islets
SUR-1−/− islets [9]; basal, 100 nM exendin-(9-39), no exogenous GLP-1, baseline 40.1±4.2
  cAMP Content: 20.5±2.3 pmol/100 islets
SUR-1−/− islets [9]; basal, 100 nM exendin-(9-39), no exogenous GLP-1, baseline 40.1±4.2, listed as Exendin-(9-39)
  cAMP Content: 20.5 ± 2.3 ^a pmol/100 islets
SUR-1−/− mice [10]; SUR-1−/− mice during treatment
  Glucose tolerance (oral, 2 g/kg): did not significantly impair; also recorded: did not influence
SUR-1−/− mice [10]; SUR-1−/− mice, 120 minute time point
  Return to baseline blood glucose levels after oral glucose: minor delay
